Patent publication US20260159520A1, “HETEROBIFUNCTIONAL COMPOUNDS AND METHODS OF TREATING DISEASE” (Halda Therapeutics OpCo, Inc., priority 2022, published 2026)

How the values were obtained:
Format in all cases: cell-based
[1] = system: T-Rex 293 cell line SC3 cells having increased expression of androgen receptor protein; test: Cellular growth inhibition, T-Rex 293 SC3 cells with doxycycline (increased androgen receptor expression); conditions: with 10 ng/mL doxycycline (increased androgen receptor), 72 hours, CellTiter-Glo 2.0
Procedure: (§1) The following types of cells were prepared for this experiment: (i) a T-Rex 293 cell line having increased expression of androgen receptor protein due to exposure to doxycycline and (ii) a T-Rex 293 cell line lacking increased expression of androgen receptor protein. Ability of the test compounds to inhibit proliferation of the foregoing cell types was evaluated according to the procedures set forth below.
(§2) The doxycycline-inducible androgen receptor protein expressing cell line was established using the following protocol: T-Rex 293 cells were purchased from Invitrogen (Cat #R71007) and transfected using Lipofectamine 2000 with the wild-type androgen receptor protein sequence cloned into the pcDNA4/TO vector. Transfected cells were selected using 400 μg/mL Zeocin (Invitrogen Cat #R25001). Following selection, single clones were raised and maintained in Dulbecco's Modified Eagle Medium (DMEM) supplemented with 10% w/w Tetracycline-free fetal bovine serum (FBS) and 250 μg/mL Zeocin. Clones were analyzed for expression of androgen receptor protein in the presence and absence of 10 ng/mL doxycycline (Sigma Cat #D9891), and a single doxycycline-inducible clone (hereinafter “SC3”) was selected for use in downstream assays.
(§3) The SC3 cells were seeded on poly-D-lysine coated, black clear-bottom 384-well plates at 2500/well, in 25 μL Phenol Red Free Dulbecco's Modified Eagle Medium (DMEM) supplemented with 10% w/w charcoal-dextran treated fetal bovine serum (FBS) and 1% w/w pen-strep, with or without 10 ng/mL doxycycline. Pen-Strep is a commercially available mixture of penicillin G and streptomycin, which is used in mammalian cell culture media to prevent bacterial contamination. Phenol Red Free Dulbecco's Modified Eagle Medium (DMEM) supplemented with 10% w/w charcoal-dextran treated fetal bovine serum (FBS) and 1% w/w pen-strep, with or without 10 ng/mL doxycycline is herein referred to as Treatment Medium. Following seeding of cells in the plates, the plates were spun at 300×g for 30 seconds, then equilibrated to room temperature for 30 minutes, and then deposited in a humidified tissue culture incubator maintained at 37° C. with 5% CO2.
(§4) At 24 hours after seeding of the cells, dilutions of test compound were prepared in DMSO and dissolved in Treatment Medium, to achieve a final DMSO concentration of 0.5% w/w, thereby providing the Test Compound Solution. A 25 μL aliquot of the Test Compound Solution was added to cells in the well plates. An equal volume of a solution containing DMSO and Treatment Medium was used as a negative control. Following treatment of cells with Test Compound Solution or said equal volume of a solution containing DMSO and Treatment Medium, the plates were spun at 300×g for 30 seconds, and then left in an incubator for 72 hours.
(§5) At the end of the treatment duration, cell viability was quantified with CellTiter-Glo 2.0 reagent (Promega Cat #G9243). For this purpose, plates were equilibrated to room temperature for 30 minutes, and then 25 μL of CellTiter-Glo 2.0 reagent was added to cells in the plate wells. Plates were then agitated on a shaker for two minutes at 500 rpm and subsequently incubated at room temperature for 10 minutes. Following incubation, the plates were spun at 3000×g for 30 seconds, then sealed with an optical adhesive cover, and luminescence readings were measured with an EnVision Plate Reader.
(§6) Data was normalized using zero luminescence for baseline. A four-parameter non-linear regression curve fit was applied to dose-response data in GraphPad Prism data analysis software to determine the half-maximal growth inhibitory concentration (GI50) for each test compound.

T47D cells = test: Cellular growth inhibition assay for T47D cells; conditions: Homo sapiens, 72 hours, CellTiter-Glo 2.0
Procedure: (§7) T47D cells were purchased from American Type Cell Culture (ATCC Cat #HTB-133) and then seeded on poly-D-lysine coated, black clear-bottom 384-well plates at 3000/well in 25 μL Dulbecco's Modified Eagle Medium (DMEM) supplemented with 10% w/w Fetal bovine serum (FBS), 0.2 units/mL recombinant human insulin (Gibco Cat #12585014), and 1% w/w Pen-Strep. Pen-Strep is a commercially available mixture of penicillin G and streptomycin, which is used in mammalian cell culture media to prevent bacterial contamination. Dulbecco's Modified Eagle Medium (DMEM) supplemented with 10% w/w fetal bovine serum (FBS), 0.2 units/mL recombinant human insulin, and 1% w/w Pen-Strep is herein referred to as Treatment Medium. Following seeding of cells in the plates, the plates were spun at 300×g for 30 seconds, then equilibrated to room temperature for 30 minutes, and then deposited in a humidified tissue culture incubator maintained at 37° C. with 5% CO2.
as §4
as §5, with “Reader (Perkin Elmer).” for “Reader.”
as §6

[2] = system: T-Rex 293 cell line SC3 cells lacking increased expression of androgen receptor protein; test: Cellular growth inhibition, T-Rex 293 SC3 cells without doxycycline; conditions: not exposed to doxycycline, 72 hours, CellTiter-Glo 2.0
Procedure: as §1, §2, §3, §4, §5, §6

VCaP cells = test: Cellular growth inhibition assay for VCaP cells; conditions: Homo sapiens, 72 hours, CellTiter-Glo 2.0
Procedure: as §7, with “VCaP” for “T47D”, “#CRL2876)” for “#HTB-133)”, “5000/well” for “3000/well”, “(FBS)” for “(FBS), 0.2 units/mL recombinant human insulin (Gibco Cat #12585014),”, “(FBS)” for “(FBS), 0.2 units/mL recombinant human insulin,”
as §4
as §5, with “Reader. Data was normalized using zero luminescence for baseline.” for “Reader.”
A four-parameter non-linear regression curve fit was applied to dose-response data in GraphPad Prism data analysis software to determine the half-maximal growth inhibitory concentration (GI50) for each test compound.

SMILES	GI50 (T47D cells) [µM]	GI50 (VCaP cells) [µM]	GI50 [1] [µM]	GI50 [2] [µM]
CCc1cnn2c(NCc3ccc(N4CCN(C5CCN(C6CN(c7ncc(C(=O)N[C@H]8C(C)(C)[C@H](Oc9ccc(C#N)c(Cl)c9)C8(C)C)cn7)C6)CC5)CC4)nc3)cc(N3CCCC[C@H]3CCO)nc12 [Compound I-79]	< 0.5	< 0.1	< 0.1	< 0.1
CCc1cnn2c(NCc3ccc(N(C)CCOC4CCN(C5CN(c6ncc(C(=O)N[C@H]7C(C)(C)[C@H](Oc8ccc(C#N)c(Cl)c8)C7(C)C)cn6)C5)CC4)nc3)cc(N3CCCC[C@H]3CCO)nc12 [Compound I-85]	< 0.5	0.1 to 1	0.1 to 1	0.1 to 1
CN(CCOCCOCCNS(=O)(=O)c1ccc(Nc2ncc(Br)c(Nc3cccc(F)c3C(N)=O)n2)cc1)c1ncc(C(=O)N[C@H]2C(C)(C)[C@H](Oc3ccc(C#N)c(Cl)c3)C2(C)C)cn1 [Compound I-19]	< 0.5	–	> 3.5	> 3.5
CCc1cnn2c(NCc3ccc(N4CC(N5CCC(C6CCN(c7ncc(C(=O)N[C@H]8C(C)(C)[C@H](Oc9ccc(C#N)c(Cl)c9)C8(C)C)cn7)CC6)CC5)C4)nc3)cc(N3CCCC[C@H]3CCO)nc12 [Compound I-66]	1.5 to 3	0.1 to 1	< 0.1	> 3.5
CCc1cnn2c(NCc3ccc(N(C)CCCN4CCC(C5CN(c6ncc(C(=O)N[C@H]7C(C)(C)[C@H](Oc8ccc(C#N)c(Cl)c8)C7(C)C)cn6)C5)CC4)nc3)cc(N3CCCC[C@H]3CCO)nc12 [Compound I-82]	0.5 to 1.5	0.1 to 1	0.1 to 1	0.1 to 1
CCc1cnn2c(NCc3ccc(N(C)CCCN4CCN(C5CN(c6ncc(C(=O)N[C@H]7C(C)(C)[C@H](Oc8ccc(C#N)c(Cl)c8)C7(C)C)cn6)C5)CC4)nc3)cc(N3CCCC[C@H]3CCO)nc12 [Compound I-81]	< 0.5	–	–	–
CN(CCNS(=O)(=O)c1ccc(Nc2ncc(Br)c(Nc3cccc(F)c3C(N)=O)n2)cc1)c1ncc(C(=O)N[C@H]2C(C)(C)[C@H](Oc3ccc(C#N)c(Cl)c3)C2(C)C)cn1 [Compound I-18, 2-((2-((4-((5-bromo-4-((2-carbamoyl-3-fluorophenyl)amino)pyrimidin-2-yl)amino)phenyl)sulfonamido)ethyl)(methyl)amino)-N-((1r,3r)-3-(3-chloro-4-cyanophenoxy)-2,2,4,4-tetramethylcyclobutyl)pyrimidine-5-carboxamide]	< 0.5	–	0.1 to 1	0.1 to 1

The next lines start with results.

GI50 (T47D cells) [µM]	GI50 (VCaP cells) [µM]	SMILES	GI50 [1] [µM]	GI50 [2] [µM]
1.5 to 3	> 3.5	CCc1cnn2c(NCc3ccc(OCCN4CCN(CC5CCN(c6ncc(C(=O)N[C@H]7C(C)(C)[C@H](Oc8ccc(C#N)c(Cl)c8)C7(C)C)cn6)CC5)CC4)nc3)cc(N3CCCCC3)nc12 [Compound I-48]	0.1 to 1	> 3.5
1.5 to 3	> 3.5	CCc1cnn2c(NCc3ccc(OCCOC4CCN(c5ncc(C(=O)N[C@H]6C(C)(C)[C@H](Oc7ccc(C#N)c(Cl)c7)C6(C)C)cn5)CC4)nc3)cc(N3CCCC(F)(F)C3)nc12 [Compound I-84, N-[3-(3-chloro-4-cyano-phenoxy)-2,2,4,4-tetramethyl-cyclobutyl]-2-[4-[2-[[5-[[[5-(3,3-difluoro-1-piperidyl)-3-ethyl-pyrazolo[1,5-a]pyrimidin-7-yl]amino]methyl]-2-pyridyl]oxy]ethoxy]-1-piperidyl]pyrimidine-5-carboxamide]	0.1 to 1	> 3.5
> 3	> 3.5	CCc1cnn2c(NCc3ccc(OCCCN4CCN(CC5CCN(c6ncc(C(=O)N[C@H]7C(C)(C)[C@H](Oc8ccc(C#N)c(Cl)c8)C7(C)C)cn6)CC5)CC4)nc3)cc(N3CCCCC3)nc12 [Compound I-50, N-((1 r,3r)-3-(3-chloro-4-cyanophenoxy)-2,2,4,4-tetramethylcyclobutyl)-2-(4-((4-(3-((5-(((3-ethyl-5-(piperidin-1-yl)pyrazolo[1,5-a]pyrimidin-7-yl)amino)methyl)pyridin-2-yl)oxy)propyl)piperazin-1-yl)methyl)piperidin-1-yl)pyrimidine-5-carboxamide]	0.1 to 1	> 3.5
0.5 to 1.5	0.1 to 1	CCc1cnn2c(NCc3ccc(OCCCN4CCN(CC5CCN(c6ncc(C(=O)N[C@H]7C(C)(C)[C@H](Oc8ccc(C#N)c(Cl)c8)C7(C)C)cn6)CC5)CC4)nc3)cc(N3CCCC(F)(F)C3)nc12 [Compound I-92]	0.1 to 1	1 to 3.5
< 0.5	< 0.1	CCc1cnn2c(NCc3ccc(OCCC4CCN(CC5CCN(c6ncc(C(=O)N[C@H]7C(C)(C)[C@H](Oc8ccc(C#N)c(Cl)c8)C7(C)C)cn6)CC5)CC4)nc3)cc(N3CCCC[C@H]3CCO)nc12 [Compound I-52]	< 0.1	0.1 to 1
1.5 to 3	> 3.5	CCc1cnn2c(NCc3ccc(OCCCN4CCN(CC5CCN(c6ncc(C(=O)N[C@H]7C(C)(C)[C@H](Oc8ccc(C#N)c(Cl)c8)C7(C)C)cn6)CC5)CC4)nc3)cc(-c3ccccc3)nc12 [Compound I-49]	0.1 to 1	> 3.5
0.5 to 1.5	> 3.5	CCc1cnn2c(NCc3ccc(OCCCCN4CCN(CC5CCN(c6ncc(C(=O)N[C@H]7C(C)(C)[C@H](Oc8ccc(C#N)c(Cl)c8)C7(C)C)cn6)CC5)CC4)nc3)cc(N3CCCC(F)(F)C3)nc12 [Compound I-93]	0.1 to 1	> 3.5
